{"source": "patent US20160251342A1", "about": "“ALDEHYDE DERIVATIVE OF SUBSTITUTED OXAZOLIDINONES” (WANBURY LTD., priority 2012, published 2016)", "key": {"[1]": {"assay": "Stability in buffer at various pH (LC-MS/MS)", "format": "physicochemical", "conditions": "for Analyte Peak Area (counts): 24 hr room temperature, replicates, Standard average 39849828", "method": "(§1) On completion of incubation period, the solution is centrifuged and supernatant is taken. To the supernatant, ice cold acetonitrile containing IS is added, vortexed and injected into LCMS/MS.\n(§2) API 4000, ESI Agilent 1100 column: Gemini Nx 100 mm×4.6 mm 5.μ; column temperature: 30° C.; eluent A: 0.1% formic acid in water, eluent B: acetonitrile; gradient: 0-2.5 min 95% A, 5% B; 2.5-2.6 min 5% A, 95% B; 2.6-4.2 min 95% A, 5% B; flow rate: 0.8 ml/min; ESI. Q1:464.098, Q3:144.255\nPrepared 0.1 mol of citric acid and 0.2 mol of di sodium hydrogen phosphate in water. Buffer pH 2.2, 4 and 7.8 are prepared using citric acid and disodium hydrogen phosphate by adjusting the pH with 0.1N HCl or 1N NaOHpH 7.4:8.89 g disodium hydrogen phosphate (Solution A) add to 1 litre of water, 1.5601 g sodium di-hydrogen phosphate (solution B) are made up to 1 liter with water; […] are mixed."}, "[2]": {"tested_on": "plasma protein", "assay": "Plasma protein binding (dialysis), mouse", "format": "in vitro ADME", "method": "A compound solution (1 mM in DMSO) (5 μL), according to the invention is added to the respective plasma matrices of rat or human or mouse (1 ml).\nAdd 150 μl of phosphate buffer to receiving side of the dialysis well. […] Precipitate with Acetonitrile and dilute samples prior to analysis in 1.5 ml polypropylene tubes. Remove 50 μl from the sample side of dialysis well and add 50 μl of phosphate buffer+300 μl of acetonitrile containing IS. Remove 50 μl from the buffer side of the dialysis well and add 50 μl of respective matrix plasma+300 μl of ACN. Then vortexed and centrifuged for 5 min, and supernatant is taken and injected into LCMS.\nDifferent test concentration ranging from 0.1 μM to 20 μM are made in methanol:water (90:10). Test solutions are added to the premixed matrix containing plasma:phosphate buffer (50:50). Precipitate with 300 μl of ice cold acetonitrile containing IS, vortexes and centrifuged. Supernatant is taken and injected into LCMS.\nPercentage of plasma protein binding was obtained via Equation (2): % Fraction unbound=(concentration on the buffer side/concentration on the sample side)*100"}, "[3]": {"assay": "Stability in simulating gastric fluid (SGF)", "format": "physicochemical", "conditions": "SGF pH 2.2, up to 120 min", "method": "as §1, §2\nSIF/SGF: 2.38 g of SIF original powder (biorelavant media) is dissolved in 1 L of milliQ water. The pH of the solution is adjusted for SIF (7.4) and SGF (2.2) with 0.1N HCl. The ratios of the peak areas (F) at the respective time points in relation to the peak areas at the starting time are calculated. […] The peak area (F) is directly correlated to the amount of test compound which is quantified by the LC MS method.\nIn simulating intestinal and gastric fluid, the area of the formula B compared with zero minute area to 120 min."}, "[4]": {"assay": "Intravenous and oral excretion profile in Wistar rats", "format": "in vivo", "conditions": "after i.v. administration, first measurement point", "method": "On the day before administration of the substance, a catheter for obtaining blood is implanted in the jugular vein of the experimental animals (male Wistar rats, body weight 200-250 g) under Isoflurane. anesthesia.\nUrine and faeces are taken collected from metabolic cages over the course of 144 h after administration of the substance. The administration volume is 10 ml/kg for oral and 1 ml/kg for IV in male Wistar rats. Intravenous administration is via a formulation of 2% N—N Dimethyl acetamide/ethanol 10%/PEG400(30%)/water for IV injection (58%) and via Tween80/PEG400/sterile water in the case of oral administration. Urine and faeces collection is 0-4, 4-8, 8-24, 24-48, 48-72, 72-96, 96-120, 120-144 in the case of IV and for oral administration.\nUrine and faeces was processed and IS containing Acetonitrile is added to a defined urine/faeces and precipitated. After centrifugation, compound formula (B) and, where appropriate, known cleavage products of the compound formula (B) in the supernatant are determined quantitatively using a suitable LC/MS-MS method.\nThe measured urine and faeces concentrations are used to calculate parameters of the test substance and of the active ingredient compound (A) liberated there from, such as AUC and Cmax.\nAcetonitrile containing IS is added to the study samples, calibration samples and QCs, and the protein is precipitated using acetonitrile. […]"}, "[5]": {"assay": "In vitro stability in rat plasma (LC-MS)", "format": "in vitro ADME", "method": "The final concentration of the test compound in the assay is 5 micromolar. […] C. The 100 microlitres of aliquot at time point was removed and diluted with ice cold acetonitrile containing IS (200 µL) to stop the reactions. Samples are centrifuged at 10,000 RPM for 5 minutes to precipitate proteins. Supernatants are transferred to micro centrifuge tubes and stored at −20° C. for analysis of LC/MS/MS. The percent parent remaining of the test substance is calculated as ratio of peak area at each time point to peak area ratio at zero min, multiplied by 100.\nas §2"}}, "note": "“And” between values parts separate entries of the source, which are not always exact repeats. Identical values can stand only once."}
{"smiles": "O=CN(C[C@H]1CN(c2ccc(N3CCOCC3=O)cc2)C(=O)O1)C(=O)c1ccc(Cl)s1", "note": "[compound formula (B), 5-chloro-N-formyl-N-({(5S)-2-oxo-3-[4-(3-oxomorpholin-4-yl)phenyl]-1,3-oxazolidin-5-yl}methyl)thiophene-2-carboxamide]", "values": [{"measurement": "Analyte Peak Area (counts)", "setting": "[1]; pH 2.1 buffer", "value": "20975674 counts and 35654402 counts"}, {"measurement": "Analyte Peak Area (counts)", "setting": "[1]; pH 4 buffer", "value": "42841292 counts and 26917087 counts"}, {"measurement": "Analyte Peak Area (counts)", "setting": "[1]; pH 7.8 buffer", "value": "35312 counts and 42503 counts"}, {"measurement": "Stability in varying pH buffer conditions", "setting": "[1]; varying pH buffers, rivaroxaban formation observed", "value": "degraded"}, {"measurement": "Observation: amount of test product", "setting": "[2]", "value": "Not quantificable amount of test"}, {"measurement": "Observation: formed Rivaroxaban bound to plasma protein", "setting": "[2]", "value": "moderate-High bound to plasma"}, {"measurement": "Conclusion (stability in SGF)", "setting": "[3]", "value": "is stable"}, {"measurement": "Detectability of unchanged test substance in urine and faeces", "setting": "[4]", "value": "no longer detectable"}, {"measurement": "Amount of test product detected (conversion to rivaroxaban from zero min)", "setting": "[5]", "value": "min. Neglible"}]}
